According to US20120115724A1, “METHOD OF CONTROLLING UNDESIRED VEGETATION” (SYNGENTA CROP PROTECTION LLC, priority 2009, published 2012):

Key:
Assay type in all cases: in vivo
[1] = test system: XANST Xanthium strumarium; experiment: Post-emergence crop and weed test (Example 15); details: 360 h, after 15 days, read-out: Percentage damage XANST
Description: (§1) Seeds of crop and representative weed species were sown in standard soil in pots. After cultivation for 14 days under controlled conditions in a glasshouse (at 22/16° C., day/night; 16 hours light; 65% humidity), the plants were sprayed. The spray solution was prepared by dissolving the technical active ingredient in acetone containing 10.56 wt % Emulsogen EL, 42.22 wt % N-methylpyrrolidone and 2.22 wt % DPG-monoethyl ether to give a 5% stock solution. This was then diluted with water containing 0.2% (v/v) of the adjuvant X-77 to give the desired treatment concentration.
(§2) The test plants were then grown on under controlled conditions in a glasshouse (at 22/16° C., day/night; 16 hours light; 65% humidity) and watered twice daily. After 15 days the test was evaluated (100 =total damage to plant; 0 =no damage to plant).

IPOHE Ipomoea hederacea = experiment: Post-emergence crop and weed test (Example 15); details: 360 h, after 15 days, read-out: Percentage damage IPOHE
Description: as §1, §2

CHEAL Chenopodium album = experiment: Post-emergence crop and weed test (Example 15); details: 360 h, after 15 days, read-out: Percentage damage CHEAL
Description: as §1, §2

[2] = test system: EPHHL Euphorbia heterophylla; experiment: Post-emergence crop and weed test (Example 15); details: 360 h, after 15 days, read-out: Percentage damage EPHHL
Description: as §1, §2

[3] = test system: AMARE Amaranthus retroflexus; experiment: Post-emergence crop and weed test (Example 15); details: 360 h, after 15 days, read-out: Percentage damage AMARE
Description: as §1, §2

[4] = test system: ABUTH Abutilon theophrasti; experiment: Post-emergence crop and weed test (Example 15); details: 360 h, after 15 days, read-out: Percentage damage ABUTH
Description: as §1, §2

VERPE Veronica persica = experiment: Post-emergence crop and weed test (Example 15); details: 360 h, after 15 days, read-out: Percentage damage VERPE
Description: as §1, §2

SIDSP Sida spinosa = experiment: Post-emergence crop and weed test (Example 15); details: 360 h, after 15 days, read-out: Percentage damage SIDSP
Description: as §1, §2

GLXMA Soybean = experiment: Post-emergence crop and weed test (Example 15); details: Glycine max, 360 h, after 15 days, read-out: Percentage damage GLXMA
Description: as §1, §2

SINAR Sinapis arvensis = experiment: Post-emergence crop and weed test (Example 15); details: Mutarda arvensis, 360 h, after 15 days, read-out: Percentage damage SINAR
Description: as §1, §2

[5] = test system: POLCO Polygonum convolvulus; experiment: Post-emergence crop and weed test (Example 15); details: Fallopia convolvulus, 360 h, after 15 days, read-out: Percentage damage POLCO
Description: as §1, §2

KCHSC Kochia scoparia = experiment: Post-emergence crop and weed test (Example 15); details: Bassia scoparia, 360 h, after 15 days, read-out: Percentage damage KCHSC
Description: as §1, §2

[6] = test system: Echinochloa crus-galli (ECHCG); experiment: Pre-emergence biological efficacy (Example 13); details: Echinochloa crus-galli, 312 h; pre-emergence, 1,000 g/ha, after 13 days; read-out: Percentage damage ECHCG
Description: (§3) Seeds of Alopecurus myosuroides (ALOMY), Setaria faberi (SETFA), Echinochloa crus-galli (ECHCG), Solanum nigrum (SOLNI), Amaranthus retroflexus (AMARE) and Ipomea hederaceae (IPOHE) were sown in standard soil in pots. After cultivation for one day under controlled conditions in a glasshouse (at 24/16° C., day/night; 14 hours light; 65% humidity), the plants were sprayed with an aqueous spray solution derived from the formulation of the technical active ingredient in acetone/water (50:50) solution containing 0.5% Tween 20 (polyoxyethylene sorbitan monolaurate, CAS RN 9005-64-5) to give a final dose of 250 or 1000g/ha of test compound. The test plants were then grown under controlled conditions in the glasshouse (at 24/16° C., day/night; 14 hours light; 65% humidity) and watered twice daily. After 13 days the test was evaluated (100 =total damage to plant; 0 =no damage to plant).

[7] = test system: Amaranthus retroflexus (AMARE); experiment: Pre-emergence biological efficacy (Example 13); details: Amaranthus retroflexus, 312 h; pre-emergence, 1,000 g/ha, after 13 days; read-out: Percentage damage AMARE
Description: as §3

Solanum nigrum (SOLNI) [8] = experiment: Pre-emergence biological efficacy (Example 13); details: Solanum nigrum, 312 h; pre-emergence, 1,000 g/ha, after 13 days; read-out: Percentage damage SOLNI
Description: as §3

[9] = test system: Ipomea hederaceae (IPOHE); experiment: Pre-emergence biological efficacy (Example 13); details: Ipomoea hederacea, 312 h; pre-emergence, 1,000 g/ha, after 13 days; read-out: Percentage damage IPOHE
Description: as §3

[10] = test system: Alopecurus myosuroides (ALOMY); experiment: Pre-emergence biological efficacy (Example 13); details: Alopecurus myosuroides, 312 h; pre-emergence, 1,000 g/ha, after 13 days; read-out: Percentage damage ALOMY
Description: as §3

Setaria faberi (SETFA) [11] = experiment: Pre-emergence biological efficacy (Example 13); details: Setaria faberi, 312 h; pre-emergence, 1,000 g/ha, after 13 days; read-out: Percentage damage SETFA
Description: as §3

[12] = test system: Echinochloa crus-galli (ECHCG); experiment: Post-emergence biological efficacy (Example 14); details: Echinochloa crus-galli, 312 h; post-emergence, 1,000 g/ha, after 13 days; read-out: Percentage damage ECHCG
Description: as §3, with “for 8 days” for “for one day”, “or 1000 g/ha” for “or 1000g/ha”, “grown on” for “grown”, “in a” for “in the”, “evaluated (100=total” for “evaluated (100 =total”, “plant; 0=no” for “plant; 0 =no”

[13] = test system: Amaranthus retroflexus (AMARE); experiment: Post-emergence biological efficacy (Example 14); details: Amaranthus retroflexus, 312 h; post-emergence, 1,000 g/ha, after 13 days; read-out: Percentage damage AMARE
Description: as §3, with “for 8 days” for “for one day”, “or 1000 g/ha” for “or 1000g/ha”, “grown on” for “grown”, “in a” for “in the”, “evaluated (100=total” for “evaluated (100 =total”, “plant; 0=no” for “plant; 0 =no”

Solanum nigrum (SOLNI) [14] = experiment: Post-emergence biological efficacy (Example 14); details: Solanum nigrum, 312 h; post-emergence, 1,000 g/ha, after 13 days; read-out: Percentage damage SOLNI
Description: as §3, with “for 8 days” for “for one day”, “or 1000 g/ha” for “or 1000g/ha”, “grown on” for “grown”, “in a” for “in the”, “evaluated (100=total” for “evaluated (100 =total”, “plant; 0=no” for “plant; 0 =no”

[15] = test system: Ipomea hederaceae (IPOHE); experiment: Post-emergence biological efficacy (Example 14); details: Ipomoea hederacea, 312 h; post-emergence, 1,000 g/ha, after 13 days; read-out: Percentage damage IPOHE
Description: as §3, with “for 8 days” for “for one day”, “or 1000 g/ha” for “or 1000g/ha”, “grown on” for “grown”, “in a” for “in the”, “evaluated (100=total” for “evaluated (100 =total”, “plant; 0=no” for “plant; 0 =no”

[16] = test system: Alopecurus myosuroides (ALOMY); experiment: Post-emergence biological efficacy (Example 14); details: Alopecurus myosuroides, 312 h; post-emergence, 1,000 g/ha, after 13 days; read-out: Percentage damage ALOMY
Description: as §3, with “for 8 days” for “for one day”, “or 1000 g/ha” for “or 1000g/ha”, “grown on” for “grown”, “in a” for “in the”, “evaluated (100=total” for “evaluated (100 =total”, “plant; 0=no” for “plant; 0 =no”

Setaria faberi (SETFA) [17] = experiment: Post-emergence biological efficacy (Example 14); details: Setaria faberi, 312 h; post-emergence, 1,000 g/ha, after 13 days; read-out: Percentage damage SETFA
Description: as §3, with “for 8 days” for “for one day”, “or 1000 g/ha” for “or 1000g/ha”, “grown on” for “grown”, “in a” for “in the”, “evaluated (100=total” for “evaluated (100 =total”, “plant; 0=no” for “plant; 0 =no”

Work on `C=Cc1c(N)nc(-c2ccc(Cl)c(F)c2)nc1C(=O)OC` [Compound 9, 4-Amino-2-(4-chloro-3-fluorophenyl)-5-ethenyl-6-methoxycarbonyl-pyrimidine] yielded a pest or weed control at 125 g/ha ([1]; 125 g/ha) of 100%, a pest or weed control at 125 g/ha (IPOHE Ipomoea hederacea; 125 g/ha) of 80% and a pest or weed control at 125 g/ha (CHEAL Chenopodium album; 125 g/ha) of 90%. It also gave a pest or weed control at 125 g/ha ([2]; 125 g/ha) of 80%, a pest or weed control at 125 g/ha ([3]; 125 g/ha) of 100% and a pest or weed control at 125 g/ha ([4]; 125 g/ha) of 80%. The pest or weed control at 125 g/ha (VERPE Veronica persica; 125 g/ha) was 80%, the pest or weed control at 125 g/ha (SIDSP Sida spinosa; 125 g/ha) was 80% and the plant injury at 125 g/ha (GLXMA Soybean; 125 g/ha) was 0%. For the same compound, the pest or weed control at 125 g/ha (SINAR Sinapis arvensis; 125 g/ha) was 80%, the pest or weed control at 125 g/ha ([5]; 125 g/ha) was 70% and the pest or weed control at 125 g/ha (KCHSC Kochia scoparia; 125 g/ha) was 90%.
`C=Cc1c(N)nc(C2CC2)nc1C(=O)OC` [Ref. Ex. C, 4-Amino-2-cyclopropyl-5-ethenyl-6-methoxycarbonyl-pyrimidine, reference compound] gave a pest or weed control at 8 g/ha ([1]; 8 g/ha) of 0%, a pest or weed control at 8 g/ha (IPOHE Ipomoea hederacea; 8 g/ha) of 70% and a pest or weed control at 8 g/ha (CHEAL Chenopodium album; 8 g/ha) of 60%. The pest or weed control at 8 g/ha ([2]; 8 g/ha) was 30%, the pest or weed control at 8 g/ha ([3]; 8 g/ha) was 10% and the pest or weed control at 8 g/ha ([4]; 8 g/ha) was 30%. It also gave a pest or weed control at 8 g/ha (VERPE Veronica persica; 8 g/ha) of 50%, a pest or weed control at 8 g/ha (SIDSP Sida spinosa; 8 g/ha) of 40% and a plant injury at 8 g/ha (GLXMA Soybean; 8 g/ha) of 70%. The pest or weed control at 8 g/ha (SINAR Sinapis arvensis; 8 g/ha) was 0%, the pest or weed control at 8 g/ha ([5]; 8 g/ha) was 0% and the pest or weed control at 8 g/ha (KCHSC Kochia scoparia; 8 g/ha) was 0%.
`C=Cc1c(N)nc(-c2ccc(Cl)cc2F)nc1C(=O)OC` [Compound 10, 4-Amino-2-(4-chloro-2-fluorophenyl)-5-ethenyl-6-methoxycarbonyl-pyrimidine] gave a pest or weed control at 15 g/ha ([1]; 15 g/ha) of 70%, a pest or weed control at 15 g/ha (IPOHE Ipomoea hederacea; 15 g/ha) of 70% and a pest or weed control at 15 g/ha (CHEAL Chenopodium album; 15 g/ha) of 80%. For the same compound, the pest or weed control at 15 g/ha ([2]; 15 g/ha) was 50%, the pest or weed control at 15 g/ha ([3]; 15 g/ha) was 50% and the pest or weed control at 15 g/ha ([4]; 15 g/ha) was 90%. For the same compound, the pest or weed control at 15 g/ha (VERPE Veronica persica; 15 g/ha) was 10%, the pest or weed control at 15 g/ha (SIDSP Sida spinosa; 15 g/ha) was 50% and the plant injury at 15 g/ha (GLXMA Soybean; 15 g/ha) was 0%. It also gave a pest or weed control at 15 g/ha (SINAR Sinapis arvensis; 15 g/ha) of 80%, a pest or weed control at 15 g/ha ([5]; 15 g/ha) of 70% and a pest or weed control at 15 g/ha (KCHSC Kochia scoparia; 15 g/ha) of 30%.
`C=Cc1c(NCc2ccccc2F)nc(-c2ccc(Cl)c(OC)c2F)nc1C(=O)OC` [Compound 14, 2-(4-Chloro-2-fluoro-3-methoxyphenyl)-5-ethenyl-4-(2-fluorophenylmethylamino)-6-methoxycarbonyl-pyrimi-dine] gave a pest or weed control at 1000 g/ha [6] of 0%, a pest or weed control at 1000 g/ha [7] of 20% and a pest or weed control at 1000 g/ha (Solanum nigrum (SOLNI) [8]) of 60%. For the same compound, the pest or weed control at 1000 g/ha [9] was 50%, the pest or weed control at 1000 g/ha [10] was 0% and the pest or weed control at 1000 g/ha (Setaria faberi (SETFA) [11]) was 0%. For the same compound, the pest or weed control at 1000 g/ha [12] was 0%, the pest or weed control at 1000 g/ha [13] was 100% and the pest or weed control at 1000 g/ha (Solanum nigrum (SOLNI) [14]) was 90%. For the same compound, the pest or weed control at 1000 g/ha [15] was 60%, the pest or weed control at 1000 g/ha [16] was 0% and the pest or weed control at 1000 g/ha (Setaria faberi (SETFA) [17]) was 0%.
